Source: ChEMBL document CHEMBL4043240, “Synthesis and evaluation of the NSCLC anti-cancer activity and physical properties of 4-aryl-N-phenylpyrimidin-2-amines” (Bioorg Med Chem Lett, 2017)
Converted amounts (≈) assume the structure as drawn.

Assays:
A549 = experiment: Cytotoxicity against human A549 cells after 72 hrs by MTT assay; assay type: functional, cell-based; details: A549, 72 h
Vero = experiment: Cytotoxicity against African green monkey Vero cells after 72 hrs by MTT assay; assay type: ADME, cell-based; details: Chlorocebus sabaeus
[1] = Selectivity index, ratio of IC50 for African green monkey Vero cells to IC50 for human A549 cells; assay type: functional
NCI-H187 [2] = experiment: Cytotoxicity against human NCI-H187 cells at 10 uM after 72 hrs by resazurin based fluorescence assay; assay type: functional
MCF7 [3] = experiment: Cytotoxicity against human MCF7 cells at 10 uM after 72 hrs by resazurin based fluorescence assay; assay type: functional
KB [4] = experiment: Cytotoxicity against human KB cells at 10 uM after 72 hrs by resazurin based fluorescence assay relative to control; assay type: functional
KB [5] = experiment: Cytotoxicity against human KB cells after 72 hrs by resazurin based fluorescence assay; assay type: functional, cell-based
[6] = 1-octanol/water partition co-efficient, log D of the compound in PBS at pH 7.4 after 6 hrs by HPLC-UV based shake-flask method; assay type: physicochemical; details: 1-octanol/PBS
[7] = Solubility of the compound in PBS at pH 7.4 by HPLC-UV analysis; assay type: physicochemical
NCI-H187 [8] = experiment: Cytotoxicity against human NCI-H187 cells after 72 hrs by resazurin based fluorescence assay; assay type: functional, cell-based; details: NCI-H187, 72 h
MCF7 [9] = experiment: cells; details: Homo sapiens, MCF7, 72 h
Description: Cytotoxicity against human MCF7 cells after 72 hrs by resazurin based fluorescence assay

[10] = biological target: Cyclin-dependent kinase 5 (Homo sapiens, UniProt Q00535); experiment: Inhibition of human CDK5
Cyclin-dependent kinase 5, sequence (Q00535 whole entry): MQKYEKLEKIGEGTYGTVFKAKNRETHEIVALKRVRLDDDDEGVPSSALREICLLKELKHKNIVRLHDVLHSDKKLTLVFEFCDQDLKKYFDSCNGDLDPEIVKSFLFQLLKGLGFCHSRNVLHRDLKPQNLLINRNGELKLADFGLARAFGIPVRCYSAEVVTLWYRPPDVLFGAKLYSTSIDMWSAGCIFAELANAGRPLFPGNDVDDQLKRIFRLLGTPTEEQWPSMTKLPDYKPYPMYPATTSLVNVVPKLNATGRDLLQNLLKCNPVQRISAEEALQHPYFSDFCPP

KB [11] = experiment: Cytotoxicity against human KB cells at 10 ug/ml after 72 hrs by resazurin based fluorescence assay relative to control; assay type: functional
NCI-H187 [12] = experiment: Cytotoxicity against human NCI-H187 cells at 10 ug/ml after 72 hrs by resazurin based fluorescence assay; assay type: functional

In the case of `COc1ccc(-c2ccnc(Nc3ccc(S(N)(=O)=O)cc3)n2)cc1`, the IC50 (A549) is reported as 4.4 µM, the IC50 (Vero) is reported as 2.4 µM and the “Ratio IC50” value [1] is reported as 0.

`COc1ccc(-c2ccnc(Nc3cccc(S(N)(=O)=O)c3)n2)cc1` gave an Activity (NCI-H187 [2]) of 82.3%, an Activity (MCF7 [3]) of 63.3% and an Activity (KB [4]) of 76.3%. For the same molecule, the IC50 (KB [5]) was 1.29 µM, the IC50 (A549) was 1.6 µM and the logD at 6 h [6] was 2.7. The IC50 (Vero) was 1.1 µM, the solubility [7] was 38.4 µM (≈ 13.7 µg/mL) and the IC50 (NCI-H187 [8]) was 2.08 µM. The IC50 (MCF7 [9]) was 5.95 µM and the “Ratio IC50” value [1] was 0.

Molecule `COc1ccc(-c2ccnc(Nc3cccc(NS(C)(=O)=O)c3)n2)cc1` has an Activity (NCI-H187 [2]) of 84.8%, an Activity (MCF7 [3]) of 41% and an Activity (KB [4]) of 43.7%. The IC50 (A549) was 0.2 µM, the logD at 6 h [6] was 3.2 and the IC50 (Vero) was 0.9 µM. For the same molecule, the solubility [7] was < 0.5 µM, the IC50 (NCI-H187 [8]) was 5.35 µM and the “Ratio IC50” value [1] was 4.5.

In the case of `Cc1csc(-c2ccnc(Nc3ccc(C(N)=O)cc3)n2)c1`, the IC50 (A549) is reported as 30 µM, the IC50 (Vero) is reported as 6.2 µM and the “Ratio IC50” value [1] is reported as 0.

For `CS(=O)(=O)c1ccc(-c2ccnc(Nc3cccc(C(N)=O)c3)n2)cc1`, the IC50 (A549) was > 100 µM, the IC50 (Vero) was 37.9 µM and the “Ratio IC50” value [1] was 0.

For `COc1ccc(-c2ccnc(Nc3ccc4nc[nH]c4c3)n2)cc1`, the IC50 (A549) was 13.9 µM, the IC50 (Vero) was 14.8 µM and the “Ratio IC50” value [1] was 1.1.

For `CC(=O)Nc1ccc(-c2ccnc(Nc3cccc(C(N)=O)c3)n2)cc1`, the IC50 (A549) was 33 µM, the IC50 (Vero) was > 100 µM and the “Ratio IC50” value [1] was >3.

With `COc1ccc(-c2ccnc(Nc3ccc(C(=O)O)cc3)n2)cc1` the Activity (NCI-H187 [2]) was 23.5%, the Activity (MCF7 [3]) was 0% and the Activity (KB [4]) was 0%. For the same molecule, the IC50 (A549) was 20.3 µM, the logD at 6 h [6] was 1.2 and the IC50 (Vero) was > 100 µM. For the same molecule, the solubility [7] was 12.1 µM (≈ 3.89 µg/mL) and the “Ratio IC50” value [1] was >4.9.

With `CC(=O)Nc1ccc(-c2ccnc(Nc3cccc(S(N)(=O)=O)c3)n2)cc1` the IC50 (A549) was 6.6 µM, the IC50 (Vero) was 8.7 µM and the “Ratio IC50” value [1] was 1.3.

`COc1ccc(-c2ccnc(Nc3cccc(C(N)=O)c3)n2)cc1` showed an Activity (NCI-H187 [2]) of 18.6%, an Activity (MCF7 [3]) of 0% and an Activity (KB [4]) of 0%. For the same molecule, the IC50 (A549) was 6.7 µM, the logD at 6 h [6] was 3.1 and the IC50 (Vero) was 2.7 µM. For the same molecule, the solubility [7] was 4.1 µM (≈ 1.31 µg/mL) and the “Ratio IC50” value [1] was 0.

In the case of `Cc1csc(-c2ccnc(Nc3cc([N+](=O)[O-])ccc3O)n2)c1`, the IC50 (A549) is reported as > 100 µM, the IC50 (Vero) is reported as > 100 µM and the “Ratio IC50” value [1] is reported as 0.

Molecule `COC(=O)c1ccc(Nc2nccc(-c3ccc(OC)cc3)n2)cc1` has an Activity (NCI-H187 [2]) of 23.8%, an Activity (MCF7 [3]) of 0% and an Activity (KB [4]) of 0%. It also gave an IC50 (A549) of 6 µM, a logD at 6 h [6] of 2.9 and an IC50 (Vero) of 4.5 µM. For the same molecule, the solubility [7] was 6.9 µM (≈ 2.31 µg/mL) and the “Ratio IC50” value [1] was 0.

In the case of `Cc1csc(-c2ccnc(Nc3ccc(C(=O)O)cc3)n2)c1`, the IC50 (A549) is reported as 18.2 µM, the IC50 (Vero) is reported as 80.8 µM and the “Ratio IC50” value [1] is reported as 4.4.

Work on `COc1cccc(-c2ccnc(Nc3cccc(S(N)(=O)=O)c3)n2)c1` yielded an Activity (NCI-H187 [2]) of 96.6%, an Activity (MCF7 [3]) of 63.8% and an Activity (KB [4]) of 94.9%. It also gave an IC50 (KB [5]) of 3.56 µM, an IC50 (A549) of 2.6 µM and a logD at 6 h [6] of 3. For the same molecule, the IC50 (Vero) was 1.1 µM, the solubility [7] was < 0.6 µM and the IC50 (NCI-H187 [8]) was 1.34 µM. The IC50 (MCF7 [9]) was 1.5 µM and the “Ratio IC50” value [1] was 0.

In the case of `COc1ccc(-c2ccnc(Nc3cccc(N)c3)n2)cc1`, the IC50 [10] is reported as 81 µM.

`NS(=O)(=O)c1cccc(Nc2nccc(-c3ccccc3)n2)c1` showed an Activity (NCI-H187 [2]) of 99.8%, an Activity (MCF7 [3]) of 0% and an Activity (KB [4]) of 93.6%. For the same molecule, the IC50 (KB [5]) was 2.44 µM, the IC50 (A549) was 0.2 µM and the logD at 6 h [6] was 2.9. It also gave an IC50 (Vero) of 0.8 µM, a solubility [7] of 3.4 µM (≈ 1.11 µg/mL) and an IC50 (NCI-H187 [8]) of 1.18 µM. For the same molecule, the “Ratio IC50” value [1] was 4.

In the case of `CS(=O)(=O)c1ccc(-c2ccnc(Nc3cccc(S(N)(=O)=O)c3)n2)cc1`, the IC50 (A549) is reported as > 100 µM, the IC50 (Vero) is reported as > 100 µM and the “Ratio IC50” value [1] is reported as 0.

Work on `COc1ccc(-c2ccnc(Nc3ccc(C(N)=O)cc3)n2)cc1` yielded an Activity (NCI-H187 [2]) of 28.1%, an Activity (MCF7 [3]) of 1.9% and an Activity (KB [4]) of 0%. The IC50 (A549) was 5.3 µM, the logD at 6 h [6] was 2.8 and the IC50 (Vero) was 5.4 µM. For the same molecule, the solubility [7] was < 0.6 µM and the “Ratio IC50” value [1] was 0.

With `Cc1csc(-c2ccnc(Nc3cccc(C(N)=O)c3)n2)c1` the IC50 (A549) was > 100 µM, the IC50 (Vero) was > 100 µM and the “Ratio IC50” value [1] was 0.

For `COc1ccc(-c2ccnc(Nc3ccc4cn[nH]c4c3)n2)cc1`, the IC50 (A549) was 65.1 µM, the IC50 (Vero) was 7.9 µM and the “Ratio IC50” value [1] was 0.

For `COc1cccc2c1C(=O)c1c(O)c3c(c(O)c1C2=O)C[C@@](O)(C(=O)CO)C[C@@H]3O[C@H]1C[C@H](N)[C@H](O)[C@H](C)O1` [DOXORUBICIN], the IC50 (KB [5]) was 1.35 µM, the IC50 (A549) was 0.4 µM and the IC50 (Vero) was 1.4 µM. The Activity (KB [11]) was 99.7%, the Activity (NCI-H187 [12]) was 96.98% and the IC50 (NCI-H187 [8]) was 0.06 µM.

Molecule `Cc1c2ccncc2c(C)c2c1[nH]c1ccccc12` [ELLIPTECINE] has an IC50 (KB [5]) of 2.81 µM, an Activity (KB [11]) of 96.3% and an Activity (NCI-H187 [12]) of 99.24%. The IC50 (NCI-H187 [8]) was 0.95 µM.

`CC/C(=C(\c1ccccc1)c1ccc(OCCN(C)C)cc1)c1ccccc1` [TAMOXIFEN] showed an IC50 (MCF7 [9]) of 7.94 µM.
